Active and inactive are the calls of the source. No rule for the calls is given here.
Tested on: CCRIS mutagenicity, Ames/micronucleus/aberration tests
Assay: CCRIS mutagenicity studies
[1] = Test System: AMES SALMONELLA TYPHIMURIUM, Strain/Indicator: TA100, Metabolic Activation: NONE, Method: STANDARD PLATE
[2] = Test System: AMES SALMONELLA TYPHIMURIUM, Strain/Indicator: TA100, Metabolic Activation: NONE, Method: PREINCUBATION
[3] = Test System: AMES SALMONELLA TYPHIMURIUM, Strain/Indicator: TA1535, Metabolic Activation: NONE, Method: PREINCUBATION
[4] = Test System: AMES SALMONELLA TYPHIMURIUM, Strain/Indicator: TA97, Metabolic Activation: NONE, Method: PREINCUBATION
[5] = Test System: AMES SALMONELLA TYPHIMURIUM, Strain/Indicator: TA98, Metabolic Activation: NONE, Method: PREINCUBATION

CC(=O)[O-].CC(=O)[O-].O.O.O.[Pb+2]
mutagenic call (End Point: IN VITRO MICRONUCLEUS, Test System: HAMSTER V79 CELLS, Metabolic Activation: NONE): active; positive (aneugenic above 0.05 um) | mutagenic call (End Point: IN VIVO MICRONUCLEUS, Test System: BLOOD ERYTHROCYTES AND RETICULOCYTES, Species: RAT, Strain/Sex: WISTAR/MALE, FEMALE (SUCKLING), Route: IP INJECTION): inactive; negative | mutagenic call (End Point: IN VIVO MICRONUCLEUS, Test System: RETICULOCYTES, ERYTHROCYTES, Species: RAT, Strain/Sex: WISTAR/MALE, FEMALE (SUCKLING), Route: ORAL): active; positive | mutagenic call (End Point: In vivo micronucleus, Test System: Bone marrow polychromatic erythrocytes, Species: Rat, Strain/Sex: Wistar/Male, female, Route: Oral): active; positive

O/C=C/Cc1ccc2c(c1)OCO2
mutagenic call (Test System: UDS HUMAN FIBROBLASTS, Strain/Indicator: THY INCORP (NON-S-PHASE), Metabolic Activation: NONE, Method: AUTORADIOGRAPHY): active; positive

c1cc2c3c(c1)C1NC1c1cccc(c1-3)C1NC21 (stereo unspecified)
mutagenic call [1]: active; positive

CC(C)OS(C)(=O)=O
mutagenic call (End Point: IN VITRO MICRONUCLEUS, Test System: MOUSE LYMPHOMA L5178Y CELLS, Metabolic Activation: NONE): active; positive | mutagenic call (End Point: IN VITRO MICRONUCLEUS, Test System: MOUSE LYMPHOMA L5178Y CELLS, Metabolic Activation: RAT, LIVER, S-9): active; positive | mutagenic call (Test System: AMES SALMONELLA TYPHIMURIUM, Strain/Indicator: TA98, Metabolic Activation: NONE, Method: STANDARD PLATE): active; positive | mutagenic call (Test System: AMES SALMONELLA TYPHIMURIUM, Strain/Indicator: TA98, Metabolic Activation: RAT, LIVER, S-9, Method: STANDARD PLATE): inactive; negative | mutagenic call [2]: active; positive | mutagenic call [1]: active; positive | mutagenic call (Test System: AMES SALMONELLA TYPHIMURIUM, Strain/Indicator: TA100, Metabolic Activation: RAT, LIVER, S-9, Method: STANDARD PLATE): active; positive | mutagenic call [3]: active; positive | mutagenic call (Test System: CHINESE HAMSTER V-79, Strain/Indicator: V-79/6-THIOGUANINE, Metabolic Activation: NONE, Method: FLASK ASSAY): active; positive | mutagenic call (Test System: CHO/HGPRT, Strain/Indicator: CHO-K1-BH4, Metabolic Activation: NONE, Method: STANDARD PLATE): active; positive

CC1(C)O[C@@H]1COc1c2occc2cc2ccc(=O)oc12
mutagenic call (Test System: AMES SALMONELLA TYPHIMURIUM, Strain/Indicator: TA92, Metabolic Activation: NONE, Method: SPOT TEST): inactive; negative | mutagenic call (Test System: AMES SALMONELLA TYPHIMURIUM, Strain/Indicator: TA92, Metabolic Activation: RAT, LIVER, S-9, AROCLOR 1254, Method: SPOT TEST): inactive; negative | mutagenic call (Test System: AMES SALMONELLA TYPHIMURIUM, Strain/Indicator: TA94, Metabolic Activation: NONE, Method: SPOT TEST): inactive; negative | mutagenic call (Test System: AMES SALMONELLA TYPHIMURIUM, Strain/Indicator: TA94, Metabolic Activation: RAT, LIVER, S-9, AROCLOR 1254, Method: SPOT TEST): inactive; negative | mutagenic call (Test System: AMES SALMONELLA TYPHIMURIUM, Strain/Indicator: TA97, Metabolic Activation: NONE, Method: SPOT TEST): inactive; negative | mutagenic call (Test System: AMES SALMONELLA TYPHIMURIUM, Strain/Indicator: TA97, Metabolic Activation: RAT, LIVER, S-9, AROCLOR 1254, Method: SPOT TEST): inactive; negative | mutagenic call (Test System: AMES SALMONELLA TYPHIMURIUM, Strain/Indicator: TA98, Metabolic Activation: NONE, Method: SPOT TEST): inactive; negative | mutagenic call (Test System: AMES SALMONELLA TYPHIMURIUM, Strain/Indicator: TA98, Metabolic Activation: RAT, LIVER, S-9, AROCLOR 1254, Method: SPOT TEST): inactive; negative | mutagenic call (Test System: AMES SALMONELLA TYPHIMURIUM, Strain/Indicator: TA100, Metabolic Activation: NONE, Method: SPOT TEST): inactive; negative | mutagenic call (Test System: AMES SALMONELLA TYPHIMURIUM, Strain/Indicator: TA100, Metabolic Activation: RAT, LIVER, S-9, AROCLOR 1254, Method: SPOT TEST): inactive; negative | mutagenic call (Test System: AMES SALMONELLA TYPHIMURIUM, Strain/Indicator: TA102, Metabolic Activation: NONE, Method: SPOT TEST): inactive; negative | mutagenic call (Test System: AMES SALMONELLA TYPHIMURIUM, Strain/Indicator: TA102, Metabolic Activation: RAT, LIVER, S-9, AROCLOR 1254, Method: SPOT TEST): inactive; negative

O=[N+]([O-])c1ccc(Nc2ccccc2O)c([N+](=O)[O-])c1
mutagenic call (Test System: AMES SALMONELLA TYPHIMURIUM, Strain/Indicator: TA97, Metabolic Activation: HAMSTER, LIVER, S-9, AROCLOR 1254 (10%), Method: PREINCUBATION): active; positive | mutagenic call [4]: active; positive | mutagenic call (Test System: AMES SALMONELLA TYPHIMURIUM, Strain/Indicator: TA97, Metabolic Activation: RAT, LIVER, S-9, AROCLOR 1254 (10%), Method: PREINCUBATION): active; positive | mutagenic call (Test System: AMES SALMONELLA TYPHIMURIUM, Strain/Indicator: TA98, Metabolic Activation: HAMSTER, LIVER, S-9, AROCLOR 1254 (10%), Method: PREINCUBATION): active; positive | mutagenic call [5]: active; positive | mutagenic call (Test System: AMES SALMONELLA TYPHIMURIUM, Strain/Indicator: TA98, Metabolic Activation: RAT, LIVER, S-9, AROCLOR 1254 (10%), Method: PREINCUBATION): active; positive | mutagenic call (Test System: AMES SALMONELLA TYPHIMURIUM, Strain/Indicator: TA100, Metabolic Activation: HAMSTER, LIVER, S-9, AROCLOR 1254 (10%), Method: PREINCUBATION): active; positive | mutagenic call [2]: inactive; negative | mutagenic call (Test System: AMES SALMONELLA TYPHIMURIUM, Strain/Indicator: TA100, Metabolic Activation: RAT, LIVER, S-9, AROCLOR 1254 (10%), Method: PREINCUBATION): active; positive | mutagenic call (Test System: AMES SALMONELLA TYPHIMURIUM, Strain/Indicator: TA1535, Metabolic Activation: RAT, LIVER, S-9, AROCLOR 1254 (10%), Method: PREINCUBATION): active; positive

CC(C)c1cccc(C(C)C)c1O
mutagenic call (End Point: IN VIVO CHROMOSOMAL ABERRATIONS, Test System: PERIPHERAL BLOOD LYMPHOCYTES, Species: HUMAN, Strain/Sex: MALE, FEMALE, Route: IV): inactive; negative

CCCCCCC[CH2][Sn]1([CH2]CCCCCCC)[O]C(=O)C=CC(=O)[O]1
mutagenic call (Test System: AMES SALMONELLA TYPHIMURIUM, Strain/Indicator: TA97, Metabolic Activation: HAMSTER, LIVER, S-9, AROCLOR 1254 (10 OR 30%), Method: PREINCUBATION): inactive; negative | mutagenic call [4]: inactive; negative | mutagenic call (Test System: AMES SALMONELLA TYPHIMURIUM, Strain/Indicator: TA97, Metabolic Activation: RAT, LIVER, S-9, AROCLOR 1254 (10 OR 30%), Method: PREINCUBATION): inactive; negative | mutagenic call (Test System: AMES SALMONELLA TYPHIMURIUM, Strain/Indicator: TA98, Metabolic Activation: HAMSTER, LIVER, S-9, AROCLOR 1254 (10 OR 30%), Method: PREINCUBATION): inactive; negative | mutagenic call [5]: inactive; negative | mutagenic call (Test System: AMES SALMONELLA TYPHIMURIUM, Strain/Indicator: TA98, Metabolic Activation: RAT, LIVER, S-9, AROCLOR 1254 (10 OR 30%), Method: PREINCUBATION): inactive; negative | mutagenic call (Test System: AMES SALMONELLA TYPHIMURIUM, Strain/Indicator: TA100, Metabolic Activation: HAMSTER, LIVER, S-9, AROCLOR 1254 (10 OR 30%), Method: PREINCUBATION): inactive; negative | mutagenic call [2]: inactive; negative | mutagenic call (Test System: AMES SALMONELLA TYPHIMURIUM, Strain/Indicator: TA100, Metabolic Activation: RAT, LIVER, S-9, AROCLOR 1254 (10 OR 30%), Method: PREINCUBATION): inactive; negative | mutagenic call (Test System: AMES SALMONELLA TYPHIMURIUM, Strain/Indicator: TA1535, Metabolic Activation: HAMSTER, LIVER, S-9, AROCLOR 1254 (10 OR 30%), Method: PREINCUBATION): inactive; negative | mutagenic call [3]: inactive; negative | mutagenic call (Test System: AMES SALMONELLA TYPHIMURIUM, Strain/Indicator: TA1535, Metabolic Activation: RAT, LIVER, S-9, AROCLOR 1254 (10 OR 30%), Method: PREINCUBATION): inactive; negative
